Results taken from ChEMBL document CHEMBL1144455, “A small molecule-kinase interaction map for clinical kinase inhibitors” (Nat Biotechnol, 2005).

Columns and labels:
[1] = target: T1, Serine/threonine-protein kinase 36 (Homo sapiens, UniProt Q9NRP7)
T1 sequence (Q9NRP7 whole entry): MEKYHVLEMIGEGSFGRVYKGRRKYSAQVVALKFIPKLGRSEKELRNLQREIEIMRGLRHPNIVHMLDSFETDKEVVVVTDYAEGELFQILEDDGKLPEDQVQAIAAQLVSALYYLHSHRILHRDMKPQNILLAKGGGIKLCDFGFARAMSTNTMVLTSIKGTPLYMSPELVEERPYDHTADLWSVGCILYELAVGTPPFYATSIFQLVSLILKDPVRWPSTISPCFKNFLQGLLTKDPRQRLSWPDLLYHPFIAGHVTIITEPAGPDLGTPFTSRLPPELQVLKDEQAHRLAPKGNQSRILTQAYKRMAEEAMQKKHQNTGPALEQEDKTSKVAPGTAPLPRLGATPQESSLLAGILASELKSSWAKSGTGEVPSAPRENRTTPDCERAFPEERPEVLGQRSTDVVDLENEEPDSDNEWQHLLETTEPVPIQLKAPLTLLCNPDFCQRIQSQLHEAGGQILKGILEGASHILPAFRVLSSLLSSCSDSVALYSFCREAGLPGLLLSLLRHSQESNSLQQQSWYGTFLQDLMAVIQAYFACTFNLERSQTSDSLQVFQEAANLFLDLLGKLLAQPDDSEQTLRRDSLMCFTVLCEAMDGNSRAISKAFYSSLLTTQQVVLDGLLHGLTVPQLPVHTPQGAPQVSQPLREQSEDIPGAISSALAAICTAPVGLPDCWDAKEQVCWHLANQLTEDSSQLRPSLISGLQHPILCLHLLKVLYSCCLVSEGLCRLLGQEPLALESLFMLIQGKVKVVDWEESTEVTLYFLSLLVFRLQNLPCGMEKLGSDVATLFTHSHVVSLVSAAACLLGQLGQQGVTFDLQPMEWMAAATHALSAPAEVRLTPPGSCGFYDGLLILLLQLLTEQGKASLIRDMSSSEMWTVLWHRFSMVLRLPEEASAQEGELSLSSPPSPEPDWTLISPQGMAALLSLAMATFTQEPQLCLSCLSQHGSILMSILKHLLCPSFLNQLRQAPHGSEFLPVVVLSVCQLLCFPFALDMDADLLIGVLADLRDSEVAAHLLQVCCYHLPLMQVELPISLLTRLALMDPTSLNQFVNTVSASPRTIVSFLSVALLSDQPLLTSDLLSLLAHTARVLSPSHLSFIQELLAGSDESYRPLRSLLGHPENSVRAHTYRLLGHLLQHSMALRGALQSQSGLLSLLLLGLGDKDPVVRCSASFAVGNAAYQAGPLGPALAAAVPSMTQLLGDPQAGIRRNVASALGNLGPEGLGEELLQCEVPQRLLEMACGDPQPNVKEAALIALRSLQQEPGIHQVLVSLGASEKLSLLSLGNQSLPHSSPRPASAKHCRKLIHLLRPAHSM

[2] = target: Phosphorylase b kinase gamma catalytic chain, skeletal muscle/heart isoform (Homo sapiens, UniProt Q16816)
Chain of Phosphorylase b kinase gamma catalytic chain, skeletal muscle/heart isoform (Q16816 whole entry, canonical isoform): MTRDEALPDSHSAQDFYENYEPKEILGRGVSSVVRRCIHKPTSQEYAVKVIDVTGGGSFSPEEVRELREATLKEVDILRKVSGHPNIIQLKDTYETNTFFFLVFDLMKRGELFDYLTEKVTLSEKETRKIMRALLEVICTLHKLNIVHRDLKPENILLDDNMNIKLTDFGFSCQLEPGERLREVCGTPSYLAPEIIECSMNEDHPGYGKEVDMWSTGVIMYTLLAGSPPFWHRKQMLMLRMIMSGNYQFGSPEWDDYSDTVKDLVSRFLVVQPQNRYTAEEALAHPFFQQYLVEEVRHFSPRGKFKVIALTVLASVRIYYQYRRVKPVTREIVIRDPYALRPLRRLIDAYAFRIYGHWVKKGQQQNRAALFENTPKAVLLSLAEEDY

[3] = target: Tyrosine-protein kinase Fer (Homo sapiens, UniProt P16591)
Chain of Tyrosine-protein kinase Fer (P16591 whole entry): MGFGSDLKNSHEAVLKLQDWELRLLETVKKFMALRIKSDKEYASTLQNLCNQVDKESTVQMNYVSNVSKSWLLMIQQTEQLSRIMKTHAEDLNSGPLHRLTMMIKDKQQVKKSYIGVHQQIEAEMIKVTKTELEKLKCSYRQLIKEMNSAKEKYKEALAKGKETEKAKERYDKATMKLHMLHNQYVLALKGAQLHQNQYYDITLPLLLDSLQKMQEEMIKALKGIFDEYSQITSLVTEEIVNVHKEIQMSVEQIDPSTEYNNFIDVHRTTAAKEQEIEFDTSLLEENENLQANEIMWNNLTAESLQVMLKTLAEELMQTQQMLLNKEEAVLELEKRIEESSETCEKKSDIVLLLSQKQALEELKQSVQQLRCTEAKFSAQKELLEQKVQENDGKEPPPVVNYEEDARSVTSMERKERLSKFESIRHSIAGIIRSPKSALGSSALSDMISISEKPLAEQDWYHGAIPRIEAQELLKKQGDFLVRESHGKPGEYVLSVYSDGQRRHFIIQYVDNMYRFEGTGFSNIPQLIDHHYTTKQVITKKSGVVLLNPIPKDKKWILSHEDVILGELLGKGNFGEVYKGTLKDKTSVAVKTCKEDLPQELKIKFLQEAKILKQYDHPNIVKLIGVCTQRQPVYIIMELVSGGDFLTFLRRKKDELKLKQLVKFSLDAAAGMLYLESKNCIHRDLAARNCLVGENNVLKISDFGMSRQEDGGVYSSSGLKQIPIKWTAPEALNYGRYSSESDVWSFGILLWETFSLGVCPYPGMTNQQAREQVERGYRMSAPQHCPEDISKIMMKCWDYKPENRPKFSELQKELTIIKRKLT

[4] = target: T2, Dual specificity protein kinase TTK (Homo sapiens, UniProt P33981)
T2 sequence (P33981 whole entry): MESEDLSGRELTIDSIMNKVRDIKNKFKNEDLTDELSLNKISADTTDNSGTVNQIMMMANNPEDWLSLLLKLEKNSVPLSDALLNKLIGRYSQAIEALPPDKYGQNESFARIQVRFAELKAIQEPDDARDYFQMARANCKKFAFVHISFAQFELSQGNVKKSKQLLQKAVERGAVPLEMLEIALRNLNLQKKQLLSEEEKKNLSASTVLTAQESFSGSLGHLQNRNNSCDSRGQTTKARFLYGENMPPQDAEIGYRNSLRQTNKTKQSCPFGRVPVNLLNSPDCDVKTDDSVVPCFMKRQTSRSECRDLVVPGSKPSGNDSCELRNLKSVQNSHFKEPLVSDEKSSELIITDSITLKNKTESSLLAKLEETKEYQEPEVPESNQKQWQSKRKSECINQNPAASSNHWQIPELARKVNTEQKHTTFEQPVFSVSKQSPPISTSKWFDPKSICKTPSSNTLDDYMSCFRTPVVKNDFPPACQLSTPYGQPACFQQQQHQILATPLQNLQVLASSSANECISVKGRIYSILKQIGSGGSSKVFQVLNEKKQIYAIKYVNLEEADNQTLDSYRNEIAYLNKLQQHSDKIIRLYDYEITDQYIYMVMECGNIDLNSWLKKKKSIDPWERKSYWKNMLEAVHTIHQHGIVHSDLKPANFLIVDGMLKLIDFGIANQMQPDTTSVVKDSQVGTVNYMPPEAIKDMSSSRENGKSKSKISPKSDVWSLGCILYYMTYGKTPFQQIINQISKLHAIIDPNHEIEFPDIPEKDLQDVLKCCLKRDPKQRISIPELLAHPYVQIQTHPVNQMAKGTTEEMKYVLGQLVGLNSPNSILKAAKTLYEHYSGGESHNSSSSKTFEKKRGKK

[5] = target: Calcium/calmodulin-dependent protein kinase kinase 2 (Homo sapiens, UniProt Q96RR4)
Chain of Calcium/calmodulin-dependent protein kinase kinase 2 (Q96RR4 whole entry): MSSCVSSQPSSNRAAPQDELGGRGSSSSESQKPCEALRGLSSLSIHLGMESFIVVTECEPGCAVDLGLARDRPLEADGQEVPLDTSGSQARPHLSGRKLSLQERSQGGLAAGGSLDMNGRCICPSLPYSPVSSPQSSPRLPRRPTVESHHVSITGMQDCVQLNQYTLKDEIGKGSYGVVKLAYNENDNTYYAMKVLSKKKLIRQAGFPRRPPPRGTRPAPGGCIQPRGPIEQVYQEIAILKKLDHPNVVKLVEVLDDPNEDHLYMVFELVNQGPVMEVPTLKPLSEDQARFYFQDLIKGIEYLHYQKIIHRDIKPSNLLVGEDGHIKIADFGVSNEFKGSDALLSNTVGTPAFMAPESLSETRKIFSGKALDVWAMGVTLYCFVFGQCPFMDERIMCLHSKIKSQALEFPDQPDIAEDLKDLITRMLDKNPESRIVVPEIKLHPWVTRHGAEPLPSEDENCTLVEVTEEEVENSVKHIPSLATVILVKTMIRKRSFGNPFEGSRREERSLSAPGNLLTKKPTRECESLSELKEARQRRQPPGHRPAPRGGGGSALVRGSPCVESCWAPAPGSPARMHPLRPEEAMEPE

[6] = target: T3, Serine/threonine-protein kinase ULK3 (Mus musculus, UniProt Q3U3Q1)
T3 sequence (Q3U3Q1 whole entry): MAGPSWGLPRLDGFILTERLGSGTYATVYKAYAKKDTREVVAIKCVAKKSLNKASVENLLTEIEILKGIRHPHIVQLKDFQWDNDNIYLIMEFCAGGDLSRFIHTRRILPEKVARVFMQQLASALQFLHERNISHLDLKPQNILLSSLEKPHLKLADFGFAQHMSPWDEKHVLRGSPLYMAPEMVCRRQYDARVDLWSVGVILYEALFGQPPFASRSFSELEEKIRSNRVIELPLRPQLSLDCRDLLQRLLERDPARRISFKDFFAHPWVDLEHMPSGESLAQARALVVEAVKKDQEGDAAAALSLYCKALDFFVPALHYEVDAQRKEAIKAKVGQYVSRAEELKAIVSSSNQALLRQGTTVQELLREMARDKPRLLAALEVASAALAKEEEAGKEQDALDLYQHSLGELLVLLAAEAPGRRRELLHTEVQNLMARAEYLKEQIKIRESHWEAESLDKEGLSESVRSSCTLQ

**Q.** How did the Kd [1] turn out when `Oc1ccc(-c2nc(-c3ccc(F)cc3)c(-c3ccncc3)[nH]2)cc1` [SB-202190] was run?
**A.** 3.8 µM

**Q.** With `CCOc1cc2ncc(C#N)c(Nc3ccc(F)c(Cl)c3)c2cc1NC(=O)/C=C/CN(C)C` [PELITINIB] as the molecule, how does the Kd [2] read?
**A.** 1.5 µM

**Q.** And the Kd [3]?
**A.** 0.25 µM

**Q.** For `Oc1c2ccccc2c2c3c(cccc13)N=N2` [SP-600125], which Kd [4] is on record?
**A.** 0.098 µM

**Q.** And the Kd [5]?
**A.** 7.5 µM

**Q.** What about the Kd [6] of the same molecule?
**A.** 0.68 µM
